# In patent US5382596A, “Substituted 2-aminotetralins” (priority 1993, dated 1995):
# Structures can show the parent of a compound that is named as a salt. Where two headings read alike, the source gives them in different places.
# What was measured:
# Dopamine D2 receptor [1] = target: Dopamine D2 receptor (Bos taurus, UniProt P20288); test: biochemical; assay type: binding, bovine; conditions: for Ki: bovine caudate membranes, 3H-Spiperone, RT, 75 min, read-out: D2 K1
# Procedure: (§1) Membranes were prepared using a Brinkmann Polytron and collected by centrifugation. Membrane sources were bovine caudate (D2,D1) or rat cortex (α2). The membranes were washed, resuspended, and incubated at 37° C. for 30 min. in either the presence (rat cortex) of 1 μ/ml adenosine deaminase or absence (bovine caudate) of 0.1 μ/ml adenosine deaminase. Membranes were centrifuged, washed once and frozen at -70° C. until used. Immediately before use, the membranes were thawed, washed once, and resuspended to a final concentration of 0.5-2 mg/ml. Assays were initiated by addition of membranes. For D2 and D1 assays, the radioligands and conditions used were ^3 H-Spiperone (RT, 75 min.) and ^3 H-SCH23390 (37° C., 15 min.), respectively. For α2 assays, ^3 H-PAC (RT, 30 min.) was used Assays were terminated by filtration using a Brandel cell harvester over Whatman GF/B filters that had been pretreated with 0.1% polyethylenimine. […]
# Dopamine D1 receptor = Dopamine D1 receptor (Bos taurus, UniProt Q95136); test: biochemical; assay type: binding, bovine; conditions: bovine caudate membranes, 3H-SCH23390, 37° C., 15 min; read-out: D1 K1
# Sequence of Dopamine D1 receptor (Q95136 whole entry): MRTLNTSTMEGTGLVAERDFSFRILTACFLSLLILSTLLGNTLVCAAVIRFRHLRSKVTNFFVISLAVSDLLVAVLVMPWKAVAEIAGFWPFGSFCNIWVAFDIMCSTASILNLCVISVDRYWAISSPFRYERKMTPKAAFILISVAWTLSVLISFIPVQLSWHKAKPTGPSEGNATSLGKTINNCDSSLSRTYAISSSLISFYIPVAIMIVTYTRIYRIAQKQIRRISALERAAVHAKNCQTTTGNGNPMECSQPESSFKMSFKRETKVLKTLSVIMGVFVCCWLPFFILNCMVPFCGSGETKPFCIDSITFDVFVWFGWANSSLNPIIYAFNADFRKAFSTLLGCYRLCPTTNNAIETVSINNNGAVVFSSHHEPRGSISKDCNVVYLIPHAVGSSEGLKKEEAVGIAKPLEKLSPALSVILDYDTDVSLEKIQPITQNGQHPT
# Procedure: as §1
# dopamine D2 receptor [2] = target: dopamine D2 receptor (Mus musculus, UniProt P61168); test: biochemical; assay type: biochemical; conditions: for EC50: concentration that produces 50% of the maximal inhibition of twitch, mouse vas deferens, read-out: D2 A50
# Sequence of dopamine D2 receptor (P61168 whole entry): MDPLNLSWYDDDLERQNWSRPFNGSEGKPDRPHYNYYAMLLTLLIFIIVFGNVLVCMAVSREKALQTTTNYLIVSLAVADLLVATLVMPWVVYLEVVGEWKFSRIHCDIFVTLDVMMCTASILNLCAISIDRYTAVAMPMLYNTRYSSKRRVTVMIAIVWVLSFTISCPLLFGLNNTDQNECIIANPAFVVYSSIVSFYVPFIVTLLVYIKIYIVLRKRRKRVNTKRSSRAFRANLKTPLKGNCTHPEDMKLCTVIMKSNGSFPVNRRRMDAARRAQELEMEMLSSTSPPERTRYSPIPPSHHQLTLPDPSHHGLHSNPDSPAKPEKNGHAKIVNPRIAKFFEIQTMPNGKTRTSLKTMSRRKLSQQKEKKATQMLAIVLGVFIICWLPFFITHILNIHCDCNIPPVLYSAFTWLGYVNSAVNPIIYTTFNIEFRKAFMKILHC
# Procedure: Vasa deferentia from male BALB/C mice weighing approximately 30 g were removed and placed in isolated organ baths containing magnesium-free modified Krebs-Henseleit solution which was gassed with 95% O2 and 5% CO2 and maintained at 37° C. Tissues were set up under resting tension of 0.5 g and stimulated electrically at 60 volts, 0.1 Hz and 1 msec duration to produce a series of twitch responses. Tissues were pretreated with propranolol (1 μM) to block β-adrenoceptors, idazoxan (3 μM) to block α2 -adrenoceptors receptors, and ascorbic acid (100 μM) for 60 min before the addition of test compound.
# adrenergic α2 receptor = target: T1, adrenergic α2 receptor (Rattus norvegicus, UniProt P22909); test: Adrenergic α2 in vitro functional test (rat vas deferens, inhibition of twitch); assay type: biochemical
# T1 sequence (P22909 1-465): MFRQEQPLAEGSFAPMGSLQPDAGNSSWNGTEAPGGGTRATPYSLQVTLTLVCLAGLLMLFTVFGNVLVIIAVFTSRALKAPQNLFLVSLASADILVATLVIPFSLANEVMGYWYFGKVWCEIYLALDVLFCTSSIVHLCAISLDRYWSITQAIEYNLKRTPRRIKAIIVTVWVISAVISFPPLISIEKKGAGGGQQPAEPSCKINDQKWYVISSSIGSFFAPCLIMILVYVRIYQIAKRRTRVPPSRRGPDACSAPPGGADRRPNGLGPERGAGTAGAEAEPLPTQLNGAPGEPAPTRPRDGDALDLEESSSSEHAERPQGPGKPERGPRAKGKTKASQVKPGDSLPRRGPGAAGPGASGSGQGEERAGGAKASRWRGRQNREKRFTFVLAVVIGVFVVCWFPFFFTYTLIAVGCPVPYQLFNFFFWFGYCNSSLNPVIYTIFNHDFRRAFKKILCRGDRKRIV
# Procedure: Vasa deferentia from male Sprague-Dawley rats weighing between 150-250 g were removed and placed in isolated organ baths containing Krebs-Henseleitsolution under a resting tension of 1 g. All other set up conditions were identical to those used for the mouse was deferens. Tissues were pretreated with propranolol (1 μM), ascorbic acid (100 μM) and the α1 -adrenergic antagonist prazosin (0.3 or 1 μM) for 60 min before the addition of test compound.
# [3] = system: denervated supersensitive postsynaptic dopamine receptors; test: In vivo functional test: contralateral circling in rats with unilateral 6-hydroxydopamine lesions of the substantia nigra; parameters: species or system rat; conditions: contralateral circling, rats, unilateral 6-hydroxydopamine lesion
# Excerpt: Dopamine agonists produce contralateral circling behavior in rats in which unilateral lesions of the substantial nigra are made by prior injection of 6-hydroxydopamine. The circling is thought to be mediated by stimulation of denervated supersensitive postsynaptic dopamine receptors (Marshall and Ungerstedt, 1977, Eur. J. Pharmacol., 41:361-367).
# [4] = concentration that produces 50% of the maximal inhibition of twitch, rat vas deferens, read-out: a2 A50
# Sequence of Dopamine D2 receptor (P20288 whole entry): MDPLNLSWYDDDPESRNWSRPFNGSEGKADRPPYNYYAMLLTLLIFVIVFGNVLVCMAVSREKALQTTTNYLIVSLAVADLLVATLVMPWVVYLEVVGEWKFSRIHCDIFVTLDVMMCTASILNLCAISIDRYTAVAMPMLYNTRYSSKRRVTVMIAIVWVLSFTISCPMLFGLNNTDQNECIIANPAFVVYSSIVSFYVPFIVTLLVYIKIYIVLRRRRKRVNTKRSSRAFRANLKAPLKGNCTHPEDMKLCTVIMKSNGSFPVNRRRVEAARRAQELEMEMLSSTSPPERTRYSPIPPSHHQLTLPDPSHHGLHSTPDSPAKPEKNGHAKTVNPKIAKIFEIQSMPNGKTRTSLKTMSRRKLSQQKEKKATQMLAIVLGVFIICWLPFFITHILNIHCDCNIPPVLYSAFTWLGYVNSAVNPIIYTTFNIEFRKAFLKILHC
Selectivity Ratio (D1 K1/D2 K1) (Dopamine D2 receptor [1]),Ki (Dopamine D2 receptor [1]) [nM],Ki (Dopamine D1 receptor) [nM],Specificity Ratio (a2 A50/D2 A50) (dopamine D2 receptor [2]),EC50 (dopamine D2 receptor [2]) [nM],EC50 (adrenergic α2 receptor; [4]) [nM],SMILES,ED50 [3] [µmol/kg],EC50 (adrenergic α2 receptor) [nM]
20,316,6310,45,0.417,18.6,"CCCN(CCOCC)[C@H]1CCc2c(ccc(O)c2O)C1 [Example 2, (S)-6-[[2-(ethoxy)ethyl]propylamino]-5,6,7,8-tetrahydro-1,2-naphthalenediol]",0.004,
74,65,4790,1860,0.105,195,CCCN(CCOCC1CC1)[C@H]1CCc2c(ccc(O)c2O)C1 [Example 3],0.007,
40,115,4570,1020,0.24,245,CCCN(CCOC(C)CC)[C@H]1CCc2c(ccc(O)c2O)C1 (some centres unmarked) [Example 5],0.006,
98,51,5010,537,0.162,87.1,CCCN(CCOC1CCCC1)[C@H]1CCc2c(ccc(O)c2O)C1 [Example 6],0.008,
36,129,4680,186,0.794,148,"CCCOCCN(CCC)[C@H]1CCc2c(ccc(O)c2O)C1 [Example 7, (S)-5,6,7,8-tetrahydro-6-[[2-(propoxy)ethyl]propylamino]-1,2-naphthalenediol]",0.002,
57,117,6610,> 14100,0.708,> 10000,CCN(CCC1CCCO1)[C@H]1CCc2c(O)cccc2C1 (some centres unmarked) [Example 25],,
,,,,,,"CCCN(CCOC(C)C)[C@H]1CCc2c(ccc3c2OCO3)C1.Cl [Example 26, (S)-6,7,8,9-Tetrahydro-N-[2-(1-methylethoxy)ethyl]-N-propylnaphtho[1,2-d]-1,3-dioxol-7-amine, hydrochloride]",0.030,
,,,,,,CCCN(CCOCC)[C@H]1CCc2c(ccc3c2OCO3)C1 [Example 27],0.100,
,,,,,,CCCOCCN(CCC)[C@H]1CCc2c(ccc3c2OCO3)C1 [Example 28],0.100,
,,,,,,CCCN(CCOC(C)(C)C)[C@H]1CCc2c(ccc3c2OCO3)C1 [Example 29],0.040,
,,,,,,"CCCN(CCOC(C)C)[C@H]1CCc2c(ccc3oc(=O)oc23)C1 [Example 38, (S)-5,6,7,8-Tetrahydro-6-[[2-(1-methylethoxy)ethyl]-propylamino]-1,2-naphthalenediol, cyclic carbonate, hydrochloride]",0.005,
,,,,,,"CCCN(CCC)[C@H]1CCc2c(ccc(O)c2O)C1 [Example 40, (S)-5,6-dihydroxy-2-(di-n-propyl)aminotetralin, reference compound]",0.009,12.5

SMILES,Selectivity Ratio (D1 K1/D2 K1) (Dopamine D2 receptor [1]),Ki (Dopamine D2 receptor [1]) [nM],Ki (Dopamine D1 receptor) [nM],Specificity Ratio (a2 A50/D2 A50) (dopamine D2 receptor [2]),EC50 (dopamine D2 receptor [2]) [nM],EC50 (adrenergic α2 receptor; [4]) [nM],ED50 [3] [µmol/kg],EC50 (adrenergic α2 receptor) [nM]
"CCCN(CCOC(C)C)[C@H]1CCc2c(ccc(O)c2O)C1.Cl [Example 1, (S)-5,6,7,8-Tetrahydro-6-[[2-(1-methylethoxy)ethyl]-propylamino]-1,2-naphthalenediol, hydrochloride]",112,65,7240,1480,0.148,218,0.004,
"CCCCOCCN(CCC)[C@H]1CCc2c(ccc(O)c2O)C1 [Example 8, (S)-6-[[2-(butoxy)ethyl]propylamino]-5,6,7,8-tetrahydro-1,2-naphthalenediol]",52,112,5890,398,0.269,107,0.004,
